Reference: ChEMBL document CHEMBL1137543, “Phenylimidazole derivatives as specific inhibitors of bacterial enoyl-acyl carrier protein reductase FabK” (Bioorg Med Chem, 2007)
≈ marks a conversion by molar mass, not a printed value.

Columns and labels:
[1] = biological target: T1, Enoyl-[acyl-carrier-protein] reductase [NADH] FabI (Escherichia coli K-12, UniProt P0AEK4); experiment: Inhibition of Escherichia coli enoyl-ACP reductase FabI
T1 sequence (P0AEK4 whole entry): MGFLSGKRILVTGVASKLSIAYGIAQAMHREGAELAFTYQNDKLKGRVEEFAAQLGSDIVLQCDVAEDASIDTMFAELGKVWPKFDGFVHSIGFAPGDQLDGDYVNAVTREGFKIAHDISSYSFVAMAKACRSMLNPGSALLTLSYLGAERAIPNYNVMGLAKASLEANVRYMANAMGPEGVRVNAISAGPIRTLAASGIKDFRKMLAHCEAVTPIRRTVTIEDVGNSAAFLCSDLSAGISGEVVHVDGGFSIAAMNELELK

[2] = biological target: T2, Enoyl-(Acyl-carrier-protein) reductase (Streptococcus pneumoniae, UniProt Q9FBC5); experiment: Inhibition of Streptococcus pneumoniae enoyl-ACP reductase FabK
T2 sequence (Q9FBC5 whole entry): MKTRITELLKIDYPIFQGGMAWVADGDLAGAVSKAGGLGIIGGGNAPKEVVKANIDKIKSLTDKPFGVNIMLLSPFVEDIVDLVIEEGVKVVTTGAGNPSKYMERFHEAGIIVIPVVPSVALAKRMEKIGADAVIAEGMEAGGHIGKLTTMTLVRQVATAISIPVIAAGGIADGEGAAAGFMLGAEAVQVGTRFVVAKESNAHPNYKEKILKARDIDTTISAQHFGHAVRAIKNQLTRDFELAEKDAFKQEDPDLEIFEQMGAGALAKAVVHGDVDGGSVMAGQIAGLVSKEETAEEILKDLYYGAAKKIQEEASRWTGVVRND

Streptococcus pneumoniae = experiment: Antibacterial activity against Streptococcus pneumoniae KU197 mutant by broth microdilution method; type: functional
K562 = experiment: Cytotoxicity against human K562 cells; type: functional, cell-based

SMILES: CS(=O)(=O)c1ccc2nc(NC(=O)NCc3nc(-c4ccccc4)c[nH]3)sc2c1
- IC50 [1]: > 32 µM
- IC50 [2]: 0.088 µM
- MIC (Streptococcus pneumoniae): 0.5 µg/mL (≈ 1.17 µM)

SMILES: O=C(NCc1nc(-c2ccccc2)c[nH]1)Nc1ncc(Sc2ccc(C(=O)O)cc2)s1
- IC50 [1]: > 32 µM
- IC50 [2]: 0.098 µM
- MIC (Streptococcus pneumoniae): 8 µg/mL (≈ 17.7 µM)

SMILES: O=C(Nc1nc2ccccc2s1)OCc1nc2ccccc2[nH]1
- IC50 [1]: > 32 µM
- IC50 [2]: > 32 µM
- MIC (Streptococcus pneumoniae): > 32 µg/mL

SMILES: COc1cccc2sc(NC(=O)NCc3nc4ccccc4[nH]3)nc12
- IC50 [1]: > 32 µM
- IC50 [2]: > 32 µM

SMILES: O=C(NCc1nc2ccccc2[nH]1)Nc1nc2ccc(F)cc2s1
- IC50 [1]: > 32 µM
- IC50 [2]: 6.4 µM

SMILES: Oc1cc(Cl)ccc1Oc1ccc(Cl)cc1Cl [TRICLOSAN]
- IC50 [2]: > 32 µM

SMILES: N#Cc1ccc2nc(NC(=O)NCc3nc4ccccc4[nH]3)sc2c1
- IC50 [1]: > 32 µM
- IC50 [2]: 4.5 µM
- MIC (Streptococcus pneumoniae): 8 µg/mL (≈ 23 µM)

SMILES: O=C(CSc1nc2ccccc2[nH]1)NCc1nc2ccccc2s1
- IC50 [1]: > 32 µM
- IC50 [2]: > 32 µM
- MIC (Streptococcus pneumoniae): > 32 µg/mL

SMILES: NC(=O)c1ccc(Sc2cnc(NC(=O)NCc3nc(-c4ccccc4)c[nH]3)s2)cc1
- IC50 [1]: > 32 µM
- IC50 [2]: 0.037 µM
- MIC (Streptococcus pneumoniae): 2 µg/mL (≈ 4.44 µM)

SMILES: O=C(NCc1ncc(-c2cccc(Br)c2)[nH]1)Nc1ncc(Sc2ccccn2)s1
- IC50 [1]: > 32 µM
- MIC (Streptococcus pneumoniae): 16 µg/mL (≈ 32.8 µM)

SMILES: O=C(NCc1ncc(-c2ccccc2)[nH]1)Nc1ncc(Sc2ccccn2)s1
- IC50 [1]: > 32 µM
- MIC (Streptococcus pneumoniae): 2 µg/mL (≈ 4.9 µM)

SMILES: CS(=O)(=O)c1ccc2nc(NC(=O)NCc3nc4ccccc4[nH]3)sc2c1
- IC50 [1]: > 32 µM
- IC50 [2]: 0.74 µM
- MIC (Streptococcus pneumoniae): 4 µg/mL (≈ 9.96 µM)

SMILES: O=C(NCc1nc(-c2ccccc2)c[nH]1)Nc1ncc(Sc2ccccc2)s1
- IC50 [1]: > 33 µM
- IC50 [2]: 0.037 µM
- MIC (Streptococcus pneumoniae): 2 µg/mL (≈ 4.91 µM)

SMILES: COc1ccc2sc(NC(=O)NCc3nc4ccccc4[nH]3)nc2c1
- IC50 [1]: > 32 µM
- IC50 [2]: > 32 µM

SMILES: O=C(NCc1ncc(-c2ccc(Br)cc2)[nH]1)Nc1ncc(Sc2ccccn2)s1
- IC50 [1]: > 32 µM
- MIC (Streptococcus pneumoniae): 0.25 µg/mL (≈ 0.513 µM)
- IC50 (K562): > 20 µM

SMILES: Cc1ccc2nc(NC(=O)NCc3nc4ccccc4[nH]3)sc2c1
- IC50 [1]: > 32 µM
- IC50 [2]: 2.6 µM
- MIC (Streptococcus pneumoniae): 16 µg/mL (≈ 47.4 µM)

SMILES: O=C(NCc1nc2ccccc2[nH]1)Nc1nc2ccccc2s1
- IC50 [1]: > 32 µM
- IC50 [2]: 6.9 µM
- MIC (Streptococcus pneumoniae): 32 µg/mL (≈ 99 µM)

SMILES: CS(=O)(=O)c1ccc2nc(NC(=O)NCCc3cnc[nH]3)sc2c1
- IC50 [1]: > 32 µM
- IC50 [2]: > 32 µM

SMILES: COc1ccc2nc(NC(=O)NCc3nc4ccccc4[nH]3)sc2c1
- IC50 [1]: > 32 µM
- IC50 [2]: 2 µM
- MIC (Streptococcus pneumoniae): 16 µg/mL (≈ 45.3 µM)

SMILES: O=C(CSc1nc2ccccc2[nH]1)Nc1nc2ccccc2s1
- IC50 [1]: > 32 µM
- IC50 [2]: > 32 µM
- MIC (Streptococcus pneumoniae): > 32 µg/mL

SMILES: CS(=O)(=O)c1ccc2nc(NC(=O)NCc3ccc(-c4ccccn4)s3)sc2c1
- IC50 [1]: > 32 µM
- IC50 [2]: 3.4 µM
- MIC (Streptococcus pneumoniae): > 32 µg/mL

SMILES: O=C(NCc1nc(-c2ccccc2)c[nH]1)Nc1ncc(-c2ccccc2)s1
- IC50 [1]: > 32 µM
- IC50 [2]: 0.38 µM
- MIC (Streptococcus pneumoniae): 4 µg/mL (≈ 10.7 µM)

SMILES: O=C(CO/N=C/c1cccc([N+](=O)[O-])c1)Nc1nc2ccccc2s1
- IC50 [1]: > 32 µM
- IC50 [2]: 1.1 µM
- MIC (Streptococcus pneumoniae): > 32 µg/mL

SMILES: O=C(NCc1nc(-c2ccccc2)c[nH]1)Nc1nc(-c2ccccc2)cs1
- IC50 [1]: > 32 µM
- IC50 [2]: > 32 µM

SMILES: O=C(NCc1ncc(-c2ccc(Cl)c(Cl)c2)[nH]1)Nc1ncc(Sc2ccccn2)s1
- IC50 [1]: > 32 µM
- IC50 [2]: 0.0037 µM
- MIC (Streptococcus pneumoniae): 1 µg/mL (≈ 2.09 µM)

SMILES: CS(=O)(=O)c1ccc2nc(NC(=O)NCc3cccnc3)sc2c1
- IC50 [1]: > 32 µM
- IC50 [2]: 23 µM
- MIC (Streptococcus pneumoniae): > 32 µg/mL

SMILES: CS(=O)(=O)c1ccc2nc(NC(=O)NCc3cccs3)sc2c1
- IC50 [1]: > 32 µM
- IC50 [2]: 30 µM
- MIC (Streptococcus pneumoniae): > 32 µg/mL
